Experimental data as given in US12319684B2 (Sanford Burnham Prebys Medical Discovery Institute, priority 2014, dated 2025).
Where two headings read alike, the source gives them in different places.

Molecular target: T1, human apelin receptor (APJ, AGTRL-1, APLNR) (Homo sapiens, UniProt P35414)
T1 construct: host or cells: Chinese hamster ovary cells
T1 sequence (P35414 1-380): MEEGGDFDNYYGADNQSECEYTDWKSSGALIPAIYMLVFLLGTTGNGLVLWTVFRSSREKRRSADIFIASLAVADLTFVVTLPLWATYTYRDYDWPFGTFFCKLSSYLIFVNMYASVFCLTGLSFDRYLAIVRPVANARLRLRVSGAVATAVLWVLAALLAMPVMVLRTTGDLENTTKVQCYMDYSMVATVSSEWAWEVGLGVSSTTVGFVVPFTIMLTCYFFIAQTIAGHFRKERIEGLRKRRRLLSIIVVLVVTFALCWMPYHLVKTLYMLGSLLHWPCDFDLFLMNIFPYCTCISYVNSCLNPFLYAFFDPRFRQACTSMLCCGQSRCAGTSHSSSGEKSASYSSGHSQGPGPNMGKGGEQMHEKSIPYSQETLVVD
Experiment: APJ cAMP cell-based assay (forskolin-stimulated CHO cells, enzyme fragment complementation)
Conditions: for EC50: CHO cells expressing human APJ, forskolin-stimulated, 0.5 h incubation, 50% of control (apelin-13, 1 nM) response, read-out: APJ cAMP EC50; for Emax: CHO, 0.5 h, read-out: APJ cAMP % resp (efficacy)
Description: The assays disclosed herein were performed using cell lines from DiscoveRx, Inc.
Biological activity was determined in a cell-based assay. This assay detects activation of the receptor by reporting on intracellular cyclic adenosine monophosphate (cAMP) level. Chinese hamster ovary cells engineered to express a stably integrated human apelin receptor (APJ, AGTRL-1, APLNR), were plated into the wells of a microtiter plate. Cells were stimulated with forskolin to increase intracellular cAMP. Immediately following, compounds were added at a range of final concentrations 0.0-100 μM, in DMSO (not to exceed a final DMSO concentration of >1% v/v), and allowed to incubate with the cells for 0.5 h. At the end of the incubation, cells were lysed to stop APJ signaling, and cAMP was quantified using a commercially available assay kit that applies enzyme fragment complementation technology and bioluminescence, in a competitive ELISA format.
Compound efficacy (% resp) is reported as a percentage of the maximal apelin-13 response at 1 nM (control).

[1] = percentage of the maximal apelin-13 response at 1 nM (control)

EC50 | Emax [1] | Compound | Emax
6630 nM | 51% | COc1ccccc1-n1c(SCc2cc(=O)n3cc(C)ccc3n2)nnc1-c1ccc([N+](=O)[O-])cc1 [Example 7, 2-[4-(2-Methoxy-phenyl)-5-(4-nitro-phenyl)-4H-[1,2,4]triazol-3-ylsulfanylmethyl]-7-methyl-pyrido[1,2-a]pyrimidin-4-one] | 
2370 nM | 113% | Cc1cccc(-n2c(SCc3cc(=O)n4cc(C)ccc4n3)nnc2-c2cccs2)c1 [Example 21, 7-Methyl-2-(5-thiophen-2-yl-4-m-tolyl-4H-[1,2,4]triazol-3-ylsulfanylmethyl)-pyrido[1,2-a]pyrimidin-4-one] | 
105 nM | 93% | COc1ccccc1-n1c(SCc2coc(-c3ccc(F)cc3)n2)nnc1-c1cccs1 [Example 39, 3-[2-(4-Fluoro-phenyl)-oxazol-4-ylmethylsulfanyl]-4-(2-methoxy-phenyl)-5-thiophen-2-yl-4H-[1,2,4]triazole] | 
3090 nM | 80% | COc1ccccc1-n1c(SCc2cc(=O)n3cc(C)ccc3n2)nnc1-c1ccncc1 [Example 4, 2-[4-(2-Methoxy-phenyl)-5-pyridin-4-yl-4H-[1,2,4]triazol-3-ylsulfanylmethyl]-7-methyl-pyrido[1,2-a]pyrimidin-4-one] | 
> 10000 nM |  | COc1ccccc1-n1c(NCc2coc(-c3ccc(C)cc3)n2)nnc1-c1cccs1 [Example 87, [4-(2-Methoxy-phenyl)-5-thiophen-2-yl-4H-[1,2,4]triazol-3-yl]-(2-p-tolyl-oxazol-4-ylmethyl)-amine] | 
1170 nM | 80% | COc1ccccc1-n1c(SCc2csc(-c3ccc(F)cc3)n2)nnc1-c1cccs1 [Example 33, 3-[2-(4-Fluoro-phenyl)-thiazol-4-ylmethylsulfanyl]-4-(2-methoxy-phenyl)-5-thiophen-2-yl-4H-[1,2,4]triazole] | 
310 nM | 154% | COc1ccccc1-n1c(SCc2cc(=O)n3cc(C)ccc3n2)nnc1-c1ccco1 [Example 2, 2-[5-Furan-2-yl-4-(2-methoxy-phenyl)-4H-[1,2,4]triazol-3-ylsulfanylmethyl]-7-methyl-pyrido[1,2-a]pyrimidin-4-one] | 
2030 nM | 134% | COc1ccccc1-n1c(SCc2ccc(Cl)cc2)nnc1-c1cccs1 [Example 70, 3-(4-Chloro-benzylsulfanyl)-4-(2-methoxy-phenyl)-5-thiophen-2-yl-4H-[1,2,4]triazole] | 
31.3 nM | 118% | COc1ccccc1-n1c(SCc2nc(=O)c3cc(C#N)ccc3[nH]2)nnc1-c1cccs1 [Example 54, 2-[4-(2-Methoxy-phenyl)-5-thiophen-2-yl-4H-[1,2,4]triazol-3-ylsulfanylmethyl]-4-oxo-1,4-dihydro-quinazoline-6-carbonitrile] | 
6.74 nM | 110% | COc1ccccc1-n1c(SCc2cc(=O)n3cc(Cl)ccc3n2)nnc1-c1cccs1 [Example 50, 7-Chloro-2-[4-(2-methoxy-phenyl)-5-thiophen-2-yl-4H-[1,2,4]triazol-3-ylsulfanylmethyl]-pyrido[1,2-a]pyrimidin-4-one] | 
> 10000 nM | 83% | COc1ccccc1-n1c(SCc2csc(-c3ccc(C)cc3)n2)nnc1-c1cccs1 [Example 36, 4-(2-Methoxy-phenyl)-3-thiophen-2-yl-5-(2-p-tolyl-thiazol-4-ylmethylsulfanyl)-4H-[1,2,4]triazole] | 
8620 nM | 107% | COc1ccccc1-n1c(SCc2nc(=O)c3c(F)cccc3[nH]2)nnc1-c1cccs1 [Example 56, 5-Fluoro-2-[4-(2-methoxy-phenyl)-5-thiophen-2-yl-4H-[1,2,4]triazol-3-ylsulfanylmethyl]-1H-quinazolin-4-one] | 

Compound | EC50 | Emax [1] | Emax
COc1ccccc1-n1c(-c2cccs2)cnc1SCc1cc(=O)n2cc(C)ccc2n1 [Example 79, 2-[1-(2-Methoxy-phenyl)-5-thiophen-2-yl-1H-imidazol-2-ylsulfanylmethyl]-7-methyl-pyrido[1,2-a]pyrimidin-4-one] | 1920 nM |  | 54%
